Where a name gives a salt, the structure may show the parent alone.

The results in this text go back to patent EP3246325A1, “2-ACYLAMINOTHIAZOLE COMPOUND CRYSTALS” (priority 2011, dated 2013).

Data set [1] relates to human c-mpl-Ba/F3 cell. In words: Mouse oral administration test: blood plasma after oral dosing added to the human c-mpl-Ba/F3 cell proliferation test system. The conditions noted are these: 3 mg/kg orally; for oral absorption: verbal conclusion from Table 1, mice; for Cell proliferation activity (%): male ICR mice, blood sampled 2 hours after administration, maximum activity of each test compound = 100%. It is filed as in vivo, male ICR mice. As to the method:
Test Example 2: Mouse Oral Administration Test 3 mg/kg of the test compound suspended in an aqueous solution of 0.5% methylcellulose was orally administered to male ICR mice. […] Table 1 Human c-mpl-Ba/F3 cell proliferation activity of […] after orally administering test compounds

In data set [2] the test system is Human c-mpl-Ba/F3 cells. In words: Cell proliferation test for human c-mpl-Ba/F3 cells (WST-1/1-methoxy PMS absorbance). The conditions noted are these: based on the maximum cell proliferation activity of rhTPO being 100%. As to the method:
Test Example 1 Cell Proliferation Test for Human c-mpl-Ba/F3 Cells
Human c-mpl-Ba/F3 cells at a concentration of 2 x 10^5 cells/mL were cultured at 37 degree C on a 96 well microplate using RPMI 1640 culture medium (100 microliter/ well) containing 10% fetal calf serum to which various concentrations of the test compound was added. After 24 hours from the start of culturing, 10 microliter/well of WST-1/1-methoxy PMS (cell measuring kit, Dojin) was added. Immediately after the addition and two hours later, the A450/A650 absorbance was measured using a microplate reader (Model 3350, Bio-Rad), and the increase in absorbance after 2 hours was interpreted to represent the proliferation activity of each test compound.

Data set [3] has as its system Ba/F3 cells where c-mpl was not introduced. In words: Cell proliferation test with Ba/F3 cells where c-mpl was not introduced (counter-test). Format: cell-based.

For `O=C(Nc1nc(-c2cc(Cl)cs2)c(N2CCN(C3CCCCC3)CC2)s1)c1cnc(N2CCC(C(=O)O)CC2)c(Cl)c1` [listing 1 of 2 here], the oral absorption entry in data set [1] was “excellent oral absorption”.
The compound `O=C(Nc1nc(-c2cc(Cl)cs2)c(N2CCN(C3CCCCC3)CC2)s1)c1cnc(N2CCC(C(=O)O)CC2)c(Cl)c1` [listing 2 of 2 here] gave an Emax in data set [2] of 102%. For the same compound, the cell proliferation effect result in data set [3] is given as “a cell proliferation effect was not observed”.
Consider `O=C(Nc1nc(-c2cc(Cl)cs2)c(N2CCN(C3CCCCC3)CC2)s1)c1cnc(N2CCC(C(=O)O)CC2)c(Cl)c1.O=C(O)/C=C\C(=O)O` [1-(3-chloro-5-{ [4-(4-chlorothiophen-2-yl)-5-(4-cyclohexylpiperazin-1-yl)thiazol-2-yl]carbamoyl}pyridin-2-yl) piperidine-4-carboxylic acid maleic acid salt], for which the “Cell proliferation activity (%)” value in data set [1] (0.3% blood plasma concentration) was less than 10%. For the same compound, the oral absorption entry in data set [1] (listed as compound X maleic acid B type crystals, 3 mg/kg) is “inferior oral absorption”.
For `O=C(Nc1nc(-c2cc(Cl)cs2)c(N2CCN(C3CCCCC3)CC2)s1)c1cnc(N2CCC(C(=O)O)CC2)c(Cl)c1.O=C(O)/C=C\C(=O)O` [1-(3-chloro-5-{[4-(4-chlorothiophen-2-yl)-5-(4-cyclohexylpiperazin-1-yl)thiazol-2-yl]carbamoyl}pyridin-2-yl) piperidine-4-carboxylic acid maleic acid salt], the oral absorption entry in data set [1] (listed as compound X maleic acid salt C type crystal, 3 mg/kg) is reported as “excellent oral absorption”.
For the compound `O=C(Nc1nc(-c2cc(Cl)cs2)c(N2CCN(C3CCCCC3)CC2)s1)c1cnc(N2CCC(C(=O)O)CC2)c(Cl)c1` [Compound X hydrochloride, reference compound], the “Cell proliferation activity (%)” value in data set [1] (10% blood plasma concentration) stood at 34%.
